Results taken from patent publication US20240165196A1, “Beta-Lactamase Inhibitors” (VIB VZW, priority 2021, published 2024).

Tests used:
[1] = peptide solubility and self-aggregation (DLS, Thioflavin T, electron microscopy, pFTAA)
From the text: Three replicates are shown for each condition. […] A single representative image is shown. […] Three replicates are shown for each condition. […] A single representative image is shown. […] A single representative image is shown. […] A single representative image is shown.
A DynaPro DLS plate reader instrument (Wyatt, Santa Barbara, CA, USA) equipped with an 830 nm laser source was used to determine the hydrodynamic radius (RH) of the peptide particles. Two hundred microliters of each sample (at 100 or 10 μM, unless stated otherwise) were placed into a flat-bottom 96-well microclear plate (Greiner, Frickenhausen, Germany). The autocorrelation of scattered light intensity at a 32° angle was recorded for 5 s and averaged over 20 recordings to obtain a single data point. The Wyatt Dynamics v7.1 software was used to calculate the hydrodynamic radius by assuming […] particles. The amyloid-specific dye Thioflavin-T (Th-T, Sigma-Aldrich, CAS number 2390-54-7) was used to study the aggregation state of peptides.

[2] = system: E. coli UZ_TEM104; assay: FACS analysis with Propidium Iodide and pFTAA; type: cell-based
Procedure: FIGS. 3A-3P. […] Three replicates are shown for each condition. […] A single representative image is shown. […] Three replicates are shown for each condition. (FIG. 3E) [Left] […] [Middle] […] [Right] […] A single representative image is shown. […] A single representative image is shown. […] A single representative image is shown. […] A single representative blot is shown. […] 106 cells were analysed for the plot.
First, we tested the assay using a mixture of live and heat inactivated (FIG. 3L) or just live bacteria (FIG. 3M), showing that heat inactivated, but not live bacteria are stained with PI, and neither are stained with pFTAA.
Bacterial cells in the cleaned suspensions were stained with both propidium iodide (PI) and FITC peptide to evaluate the killing rate and peptide uptake in a two-dimensional analysis. […] Treated bacteria washed with PBS buffer two times. One microliter of PI (Invitrogen) was added to the bacteria and incubated for 5 min. The bacteria were used by FACS tubes for 40000 events. To correlate the activity of the peptides with cell death, the fluorescence intensity was measured in two channels using the Gallios™ Flow Cytometer (Beckman Coulter, USA), PI: excitation 536 nm and emission 617 nm, FITC: excitation 490 nm and emission 525 nm. Heated bacteria at 90° C. for 10 min were used as PI-positive control.

[3] = system: HeLa; type: cell-based, human
From the text: FIGS. 4A-4K. […] IV—Intravenous, IP—Intraperitoneal, SC—Subcutaneously. The data shown is from a single experiment with 4 animals per group. […] (ns—non significant, #—P>0.05, *—P≤0.05, ***—P≤0.01, ****—P≤0.001). (FIG. 4G) FICI plot as in FIG. 2, for the E. coli strains indicated and the combination of penicillin and the TEM3.2 peptide. […] (FIG. 4J) Same as FIG. 4H for peptide BGAL. (FIG. 4K) Same as FIG. 4H for peptide P33.
Given this broad activity on clinical isolates, we wondered if the TEM3.2 peptide could be used to re-sensitize bacteria to ampicillin treatment in vivo, in a mouse Urinary Tract Infection (UTI) model.

[4] = system: uro-pathogenic E. coli strain (UPEC strain blaTEM-1); assay: MIC of ampicillin on the uro-pathogenic strain; type: cell-based; details: 32 μg/ml of TEM3.2 or tazobactam
Procedure: Vehicle alone (0.9% NaCl) was also administered (IV).
Determination of MIC values using the broth microdilution in the 96-well plate (BD Biosciences, Belgium) according to the EUCAST guideline, which was performed in 96-well polystyrene flat bottom microtiter plates (BD Biosciences). Briefly, a single colony was inoculated into 5 mL Difco™ Mueller Hinton Broth (BD Biosciences Ref 275730) and grown to the end-exponential growth phase in a shaking incubator at 37° C. Cultures were subsequently diluted to an MacFarland (0.5 optical density) then the culture was diluted to reach 10^6 CFU/mL in fresh MHB medium. 50 μl of different concentration of peptides ranging from 128 to 2 μg/mL were serially diluted to the sterile 96-well plate in MHB. 50 μL of the diluted bacteria in MHB were pipetted into 96-well plates to reach the final volume of 100 μL. The bacteria grown with the maximum concentration of carrier and medium were considered as positive and negative controls, respectively. The plates were statically incubated overnight at 37° C. to allow bacterial growth. OD was measured at 590 nm a multipurpose ultraviolet-visible plate reader, and the absorbance of the growth bacteria was measured using absorbance reader. Bacterial growth was also visually inspected and agreed well with the OD reading.

Ac-RLTAFLHNRRPRLTAFLRQRR-NH2 [TEM3.2]
solubility by Dynamic Light Scattering ([1]; 50 μM peptide in buffer alone (50 mM Tris pH 8.5, 300 mM NaCl)): soluble in vitro
aggregation of the peptide in presence of polyphosphate (ThT binding, electron microscopy) ([1]; 50 μM peptide, buffer with polyP): amyloid-like aggregation
cells with non-lethal aggregation (shift only in pFTAA channel) ([2]; 50 μg/mL TEM3.2 in PBS, 4 h): > 99%
change in PI (cell death) and pFTAA (aggregation) channels ([2]; 400 μg/mL penicillin G and 50 μg/mL TEM3.2, 4 h): shift in both channels
cytotoxicity (Cell Titer Blue) [3]: not cytotoxic
MIC Ampicillin in the presence of additive [4]: 25 µg/mL
